Values quoted from earlier work in patent US9314468B2, “Chemokine receptor modulators” (Altiris Therapeutics, Inc., priority 2008, dated 2016).

Assays:
[1] = tested on: MT-4 cells; settings: cited from earlier work
[2] = tested on: HIV; settings: MT-4 cells; read-out: concentration required for 50% protection of HIV-induced cytopathogenicity; cited from earlier work
[3] = in vivo; cited from earlier work

TN14003
concentration leading to 50% toxicity [1]: 410
EC50 [2]: 0.6 nM

c1cc(CN2CCCNCCNCCCNCC2)ccc1CN1CCCNCCNCCCNCC1 [AMD3100]
side effect in clinical study [3]: cardiac-related side effect
